51 compounds from US20230322753A1, “HETEROARYL DERIVATIVE, METHOD FOR PREPARATION THEREOF, AND PHARMACEUTICAL COMPOSITION COMPRISING SAME AS ACTIVE INGREDIENT” (VORONOI INC., priority 2020, published 2023) can be followed below.

For the experiment, the system named is Ba/F3 cells expressing EGFR Exon20 ins NPH. Briefly: Ba/F3 proliferation suppression activity, cells expressing EGFR Exon20 ins NPH. It counts as cell-based. The settings on record: Mus musculus, BaF3, 72 hours, CellTiter-Glo. The procedure: A following experiment was carried out to evaluate the suppression activity of the compounds according to the present invention against the proliferation of Ba/F3 which expresses EGFR mutations.
For the Ba/F3 cells, a RPMI-1640 medium containing 10% FBS and 5 ng/ml IL-3 (R&D Systems) was used. The transduced Ba/F3 cells were cultured in a medium, which is same as the above medium, but 1 ug/ml puromycin (Invitrogen) was additionally added to.
24 hours before the treatment of the cells with the compounds, 3000 to 5000 cells were distributed into each well of a white clear bottom 96 well plate (Corning). The compounds were diluted in a dimethyl sulfoxide (e.g. dilution ratio of 3:1 and total 12 concentrations) and then injected by 0.5 ul respectively, such that a final concentration amounted to 0.3 nM to 50 uM. 72 hours after the treatment with the compounds, the measurement of live cells was made in such way that these cells were stored for 10 minutes at a room temperature using a CellTiter-Glo luminescent cell-viability reagent (Promega) and then their luminescence intensities were measured using a reader (i.e. Synergy Neo, Biotek). Each test was repeated three times.
resulting values were calculated as a cell growth ratio (%) compared to a control. Then, the graphs were drawn and the […] values were calculated by using a program, GraphPad Prism version 5.0.
Background: Cellular ATP, detected with luciferase, serves as a proxy for viable cell number.
Usually GI50 stands for the concentration that inhibits growth by half. On to `C=CC(=O)Nc1cc(Nc2cc(N3OCC[C@@H]3c3ccc(F)c(C(F)(F)F)c3)ncn2)c(OC)cc1N1CCC(N(C)C)CC1` [Compound 39], for which the GI50 is below 50 nM.

For the compound `C=CC(=O)Nc1cc(Nc2cc(N3OCC[C@@H]3c3ccc(F)c(C(F)(F)F)c3)ncn2)c(OC)cc1N1CCN(CC)CC1` [Compound 38], the GI50 was below 50 nM.

In the case of `C=CC(=O)Nc1cc(Nc2cc(N3OCCC3c3cccc4c3cnn4C)ncn2)c(OC)cc1N1CCC(N2CCN(C3CC3)CC2)CC1` (stereo not drawn) [Compound 126], the GI50 was below 50 nM.

Turning to `C=CC(=O)Nc1cc(Nc2cc(N3OCC[C@@H]3c3cccc(C(F)(F)F)c3)ncn2)c(OC)cc1N1CCC(N2CCCC2)CC1` [Compound 22], the GI50 was below 50 nM.

On to `C=CC(=O)Nc1cc(Nc2cc(N3OCC[C@@H]3c3cccc(C(F)(F)F)c3F)ncn2)c(OC)cc1N1CC[C@@H](CN(C)C)C1` [Compound 95], for which the GI50 is below 50 nM.

Regarding `C=CC(=O)Nc1cc(Nc2cc(N3OCC[C@@H]3c3cccc(C(F)(F)F)c3F)ncn2)c(OC)cc1N1CCC(N2CCN(C(C)=O)CC2)CC1` [Compound 91], the GI50 was in the range of 50 to 500 nM.

`C=CC(=O)Nc1cc(Nc2cc(N3OCC[C@@H]3c3ccc(F)c(C(F)(F)F)c3)ncn2)c(OC)cc1N1CCN(C)[C@@H](C)C1` [Compound 44]: the GI50 is below 50 nM.

As to `C=CC(=O)Nc1cc(Nc2cc(N3OCC[C@@H]3c3cccc(C(F)(F)F)c3)ncn2)c(OC)cc1N1CCN(C)[C@@H](C)C1` [Compound 7], the GI50 was below 50 nM.

With `C=CC(=O)Nc1cc(Nc2cc(N3OCC[C@@H]3c3cc(F)cc(C(F)(F)F)c3)ncn2)c(OC)cc1N1CCN(C2CC2)CC1` [Compound 2], the GI50 was 50 to 500 nM.

In the case of `C=CC(=O)Nc1cc(Nc2cc(N3OCC[C@@H]3c3cccc(C(F)(F)F)c3F)ncn2)c(OC)cc1N1CCOCC1` [Compound 65], the concentration for 50% growth inhibition (GI50) lay within 50 to 500 nM.

For `C=CC(=O)Nc1cc(Nc2cc(N3OCC[C@@H]3c3cccc(C(F)(F)F)c3F)ncn2)c(OC)cc1OCCN(C)C` [Compound 70], the GI50 is below 50 nM.

Regarding `C=CC(=O)Nc1cc(Nc2cc(N3OCCC3c3cccc4c3cnn4C)ncn2)c(OC)cc1N1CCN(C)CC1` (stereo not drawn) [Compound 125], the GI50 was in the range of 50 to 500 nM.

Turning to `C=CC(=O)Nc1cc(Nc2cc(N3OCC[C@@H]3c3cccc(C(F)(F)F)c3F)ncn2)c(OC)cc1N1CCC(N2CCN(C3CC3)[C@H](C)C2)CC1` [Compound 68], the GI50 was 50 to 500 nM.

On to `C=CC(=O)Nc1cc(Nc2cc(N3OCC[C@@H]3c3cccc(C(F)(F)F)c3)ncn2)c(OC)cc1N1CCCN(C)CC1` [Compound 26], for which the GI50 is below 50 nM.

As for `C=CC(=O)Nc1cc(Nc2cc(N3OCC[C@@H]3c3ccc(F)c(C(F)(F)F)c3)ncn2)c(OC)cc1N1CCC(N2CCOCC2)CC1` [Compound 64], the GI50 was below 50 nM.

Regarding `C=CC(=O)Nc1cc(Nc2cc(N3OCC[C@@H]3c3ccc(F)c(C(F)(F)F)c3)ncn2)c(OC)cc1N(C)CCN(C)C` [Compound 36], the GI50 is below 50 nM.

Turning to `C=CC(=O)Nc1cc(Nc2cc(N3OCC[C@@H]3c3cccc(C(F)(F)F)c3)ncn2)ccc1N1CCN(C)CC1` [Compound 31], the GI50 was in the range of 50 to 500 nM.

On to `C=CC(=O)Nc1cc(Nc2cc(N3OCC[C@@H]3c3cccc(C(F)(F)F)c3F)ncn2)c(OC)cc1N1CCC(N(C)C)CC1` [Compound 82], for which the GI50 is below 50 nM.

Take `C=CC(=O)Nc1cc(Nc2cc(N3OCC[C@@H]3c3ccc(Cl)c(C(F)(F)F)c3)ncn2)c(OC)cc1N1CCN(C)CC1` [Compound 32]: the GI50 is 50 to 500 nM.

For the compound `C=CC(=O)Nc1cc(Nc2cc(N3OCC[C@@H]3c3cccc(C(F)(F)F)c3F)ncn2)c(OC)cc1N1CCN(CCC)CC1` [Compound 93], the GI50 is below 50 nM.

On to `C=CC(=O)Nc1cc(Nc2nccc(N3OCC[C@@H]3c3ccccc3)n2)c(OC)cc1N(C)CCN(C)C` [Compound 108], for which the GI50 lay in the range of 50 to 500 nM.

As for `C=CC(=O)Nc1cc(Nc2cc(N3OCC[C@@H]3c3ccc(F)c(C(F)(F)F)c3)ncn2)c(OC)cc1N1CCN(CC2CC2)CC1` [Compound 42], the GI50 was below 50 nM.

Take `C=CC(=O)Nc1cc(Nc2cc(N3OCC[C@@H]3c3cc(F)cc(C(F)(F)F)c3)ncn2)c(OC)cc1N1CCC(N2CCCC2)CC1` [Compound 18]: the GI50 is below 50 nM.

With `C=CC(=O)Nc1cc(Nc2cc(N3OCC[C@@H]3c3cccc(C(F)(F)F)c3)ncn2)c(OC)cc1N1CCN(CC2CC2)CC1` [Compound 25], the GI50 was below 50 nM.

`C=CC(=O)Nc1cc(Nc2cc(N3OCC[C@@H]3c3cc(F)cc(F)c3)ccn2)c(OC)cc1N(C)CCN(C)C` [Compound 99]: the GI50 lay within 50 to 500 nM.

Regarding `C=CC(=O)Nc1cc(Nc2cc(N3OCC[C@@H]3c3cccc(C(F)(F)F)c3F)ncn2)c(OC)cc1N1CCN(C)C(=O)C1` [Compound 85], the GI50 is 50 to 500 nM.

As for `C=CC(=O)Nc1cc(Nc2cc(N3OCC[C@@H]3c3cc(F)cc(F)c3)ccn2)c(OC)cc1N1CCC(N2CCN(C3CC3)CC2)CC1` [Compound 98], the GI50 lay within 50 to 500 nM.

On to `C=CC(=O)Nc1cc(Nc2cc(N3OCC[C@@H]3c3cccc(C(F)(F)F)c3F)ncn2)c(OC)cc1N1CCN(C2CC2)CC1` [Compound 81], for which the GI50 fell in the range of 50 to 500 nM.

As to `C=CC(=O)Nc1cc(Nc2cc(N3OCC[C@@H]3c3cccc(C(F)(F)F)c3)ncn2)c(OC)cc1N1C[C@@H]2C[C@H]1CO2` [Compound 30], the GI50 was in the range of 50 to 500 nM.

`C=CC(=O)Nc1cc(Nc2cc(N3OCC[C@@H]3c3cccc(C(F)(F)F)c3)ncn2)c(OC)cc1N1C[C@H]2C[C@@H]1CO2` [Compound 28]: the GI50 is 50 to 500 nM.

Take `C=CC(=O)Nc1cc(Nc2cc(N3OCC[C@@H]3c3cc(F)cc(C(F)(F)F)c3)ncn2)c(OC)cc1N1CCC(N(C)C)CC1` [Compound 15]: the GI50 was 50 to 500 nM.

On to `C=CC(=O)Nc1cc(Nc2cc(N3OCCC3c3cc(Cl)cc(C(F)(F)F)c3)ncn2)c(OC)cc1N1CCC(N2CCN(C3CC3)CC2)CC1` (stereo not drawn) [Compound 51], for which the GI50 was in the range of 50 to 500 nM.

`C=CC(=O)Nc1cc(Nc2cc(N3OCC[C@@H]3c3cc(F)cc(F)c3)ncn2)c(OCC(F)(F)F)nc1N1CCN(C)CC1` [Compound 128]: the GI50 was in the range of 50 to 500 nM.

With `C=CC(=O)Nc1cc(Nc2cc(N3OCC[C@@H]3c3ccc(Cl)c(C(F)(F)F)c3)ncn2)c(OC)cc1N1CCC(N(C)C)CC1` [Compound 35], the GI50 lay within 50 to 500 nM.

For the compound `C=CC(=O)Nc1cc(Nc2cc(N3OCC[C@@H]3c3cccc(C(F)(F)F)c3F)ncn2)c(OC)cc1N1CCC(N2CCC2)CC1` [Compound 71], the GI50 is below 50 nM.

For the compound `C=CC(=O)Nc1cc(Nc2cc(N3OCC[C@@H]3c3cccc(C(F)(F)F)c3)ncn2)c(OC)cc1N1CCOCC1` [Compound 27], the GI50 is below 50 nM.

Take `C=CC(=O)Nc1cc(Nc2cc(N3OCC[C@@H]3c3ccc(F)c(C(F)(F)F)c3)ncn2)c(OC)cc1N1CCC(N2CCN(C3CC3)CC2)CC1` [Compound 49]: the GI50 is below 50 nM.

Consider `C=CC(=O)Nc1cc(Nc2cc(N3OCC[C@@H]3c3cccc(C(F)(F)F)c3)ncn2)c(OC)cc1N1CCC(N2CCC(N3CCN(C)CC3)CC2)CC1` [Compound 14], for which the GI50 was 50 to 500 nM.

As to `C=CC(=O)Nc1cc(Nc2cc(N3OCC[C@@H]3c3cccc(C(F)(F)F)c3F)ncn2)c(OC)cc1N1CCC(N2CCNCC2)CC1` [Compound 97], the GI50 is below 50 nM.

Regarding `C=CC(=O)Nc1cc(Nc2cc(N3OCC[C@@H]3c3cc(F)cc(F)c3)ccn2)c(OC)cc1N1CCN(C)CC1` [Compound 100], the GI50 was in the range of 500 to 5000 nM.

`C=CC(=O)Nc1cc(Nc2cc(N3OCC[C@@H]3c3ccc(F)c(C(F)(F)F)c3)ncn2)c(OC)cc1N1CCC(N(CC)CC)CC1` [Compound 47]: the GI50 is below 50 nM.

With `C=CC(=O)Nc1cc(Nc2cc(N3OCC[C@@H]3c3ccc(F)c(C(F)(F)F)c3)ncn2)c(OC)cc1N1CCCN(C)CC1` [Compound 40], the GI50 is below 50 nM.

Take `C=CCN1CCN(c2cc(OC)c(Nc3cc(N4OCC[C@@H]4c4cccc(C(F)(F)F)c4)ncn3)cc2NC(=O)C=C)CC1` [Compound 24]: the GI50 was below 50 nM.

Regarding `C=CC(=O)Nc1cc(Nc2cc(N3OCC[C@@H]3c3cccc(C(F)(F)F)c3F)ncn2)c(OC)cc1N1CCC(N2CCN(C(C)C)CC2)CC1` [Compound 78], the GI50 is below 50 nM.

For the compound `C=CC(=O)Nc1cc(Nc2cc(N3OCC[C@@H]3c3cccc(C(F)(F)F)c3F)ncn2)c(OC)cc1N1CCC(N2C[C@@H](C)O[C@@H](C)C2)CC1` [Compound 73], the GI50 was below 50 nM.

Take `C=CC(=O)Nc1cc(Nc2cc(N3OCC[C@@H]3c3cccc(C(F)(F)F)c3F)ncn2)c(OC)cc1N1CCC(N2C[C@H]3C[C@@H]2CO3)CC1` [Compound 89]: the GI50 is below 50 nM.

As to `C=CC(=O)Nc1cc(Nc2cc(N3OCC[C@@H]3c3ccc(Cl)c(C(F)(F)F)c3)ncn2)c(OC)cc1N1CCC(N2CCN(C3CC3)CC2)CC1` [Compound 34], the GI50 fell in the range of 50 to 500 nM.

With `C=CC(=O)Nc1cc(Nc2cc(N3OCC[C@@H]3c3cccc(C(F)(F)F)c3F)ncn2)c(OC)cc1N1C[C@H]2C[C@@H]1CO2` [Compound 86], the GI50 lay within 50 to 500 nM.

Consider `C=CC(=O)Nc1cc(Nc2cc(N3OCC[C@@H]3c3cccc(C(F)(F)F)c3F)ncn2)c(OC)cc1N1CCC(N2CCN(C3CC3)[C@@H](C)C2)CC1` [Compound 67], for which the GI50 was in the range of 50 to 500 nM.

On to `C=CC(=O)Nc1cc(Nc2cc(N3OCC[C@@H]3c3cccc(C(F)(F)F)c3)ncn2)c(OC)cc1N1CCC(N(CC)CC)CC1` [Compound 20], for which the 50% growth inhibitory concentration (GI50) was below 50 nM.

`C=CC(=O)Nc1cc(Nc2cc(N3OCC[C@@H]3c3cc(F)cc(C(F)(F)F)c3)ncn2)c(OC)cc1N1CCN(C2CC2)[C@@H](C)C1` [Compound 6]: the GI50 is 50 to 500 nM.
